Values quoted from earlier work, collected in patent US6963011B2, “N-(2-phenyl-3-aminopropyl)naphthamides” (Astrazeneca AB, priority 2000, dated 2005).
Read-outs that look alike come from different tables or passages of the source. Non-standard residues stand in square brackets, D forms with d. Residues, ends and D or L forms follow the SMILES beside them. *: point of attachment. Cyclohexanecarbonyl = O=C(C1CCCCC1)*

Tests used:
[1] = Walsh et al., Psychopharmacology 121:186-191, 1995
[2] = Vassout et al., Neuropeptides 26/S1:38, 1994; only at 30 mg/kg bid
[3] = not given; remark: listed apart in the source
[4] = not given; remark: listed apart in the source
[5] = Walsh et al., Psychopharmacology 121:186-191, 1995
[6] = Vassout et al., Neuropeptides 26/S1:38, 1994
[7] = Teixeira et al., Eur J Pharmacol 311(1):7-14, 1996
[8] = Stratton et al., Eur. J. Pharmacol. 250:R11-12, 1993

SMILES	Outcome, Marmoset human intruder [1]	Outcome, Light-dark box [5]	Outcome, Elevated plus-maze [4, 7]	Outcome, Light-dark box [8]	also measured
COC1(C[S@@+]([O-])c2ccccc2)CCN(CCc2c[nH]c3ccc(F)cc23)CC1 [GR159897]	anxiolytic	anxiolytic			
Cc1cc(C)cc(C(=O)N2CC[C@H](NCc3ccnc4ccccc34)C[C@H]2Cc2ccccc2)c1 [CGP 49823]					Outcome, Forced swim test (depression model) [2]: antidepressant; Outcome, Social interaction ([3]; File, Pharm Bio B 58(3):747-752, 1997): anxiolytic; Outcome, Social interaction test [3, 6]: anxiolytic; Outcome, Elevated plus-maze [4, 6]: inactive
CC(=O)NC1(c2ccccc2)CCN(CC[C@H](CN(C)C(=O)c2ccccc2)c2ccc(Cl)c(Cl)c2)CC1 [SR48968]	anxiolytic	anxiolytic	anxiolytic	anxiolytic	
C[C@H](NC(=O)CNC(=O)C1CCCCC1)C(=O)N[C@H](Cc1c[nH]c2ccccc12)C(=O)N[C@@H](Cc1ccccc1)C(=O)N(C)C [GR100679] (Cyclohexanecarbonyl-GA[dW]F-NMe2)				anxiolytic	
CN(Cc1ccccc1)C(=O)[C@H](Cc1ccc2ccccc2c1)NC(=O)[C@@H]1C[C@@H](O)CN1C(=O)c1cn(C)c2ccccc12 [FK888]			anxiolytic		
